In patent US20240376153A1, “CNP CYCLIC PEPTIDE, AND MEDICINE, EXTERNAL PREPARATION AND COSMETIC EACH CONTAINING SAID CYCLIC PEPTIDE” (Igisu Co., Ltd., priority 2015, published 2024):
Positions of bridges follow the written chain, without caps; N, C: chain ends. Residues, ends and D or L forms follow the SMILES beside them. No end group written: not given here.

Legend:
[1] = tested on: affected site of psoriasis; assay: Effect of C-ring / CNP gel formulation on psoriasis; type: in vivo, human; settings: psoriasis patient P6; after 3 days from the application
Source text: Followings are the summary of the therapeutic effects for psoriasis cases. As described above, the C-ring gel formulation was applied to the affected site of psoriasis, and changes in symptoms before and after the application were observed. When possible, as a comparative example, the CNP gel formulation described above was applied onto another affected site of the same subject where the C-ring gel formulation had not been applied, and changes in symptoms before and after the application were observed. Examination result is given in tables below with subjects' age, sex and symptoms, and prescription for the subjects.

[2] = tested on: normal subjects who have symptoms of lip roughness; assay: Lip mucosal condition after application of C-ring gel formulation; type: in vivo, human; settings: lip roughness (cases I1-I5); 1 μM, 1 application
Source text: To normal subjects who have symptoms of lip roughness, the C-ring gel formulation was applied and changes in lip mucosal conditions were observed and summarized in the following table. Changes in the mucosal condition were judged based on based on cenesthesic evaluation by the subject and objective observation by the inventor as a physician.

[3] = tested on: nasal cavity, the affected site; assay: Effect on nose of cyclic peptides in which amino acid was substituted; settings: Formulation C = 30 μg/ml, nasal application once/day
Experimental: The obtained cyclic peptide was combined with purified water at 1, 5, 30, 100, 500 μg/ml and applied to the affected site. Formulations A to E in the tables refers to the cyclic peptide of 1, 5, 30, 100, 500 μg/ml, respectively.

Molecule	Results of two-sided application on lower thighs (FIG. 1) [1]	Post-application Symptoms [2]	irritation upon nasal application [3]
Gly-Leu-Ser-Lys-Gly-Cys-Phe-Gly-Leu-Lys-Leu-Asp-Arg-Ile-Gly-Ser-Met-Ser-Gly-Leu-Gly-Cys (GLSKGCFGLKLDRIGSMSGLGC; disulfide 6-22; listed as Homo sapiens) [CNP, human wild-type C-type natriuretic peptide (American Peptide Company)]	scales became inconspicuous but still remains, and erythema and infiltration were improved only a little	remained on corner of mouth.	–
CC[C@H](C)[C@@H]1NC(=O)[C@H](CCCNC(=N)N)NC(=O)[C@H](CC(=O)O)NC(=O)[C@H](CC(C)C)NC(=O)[C@H](CCCCN)NC(=O)[C@H](CC(C)C)NC(=O)CNC(=O)[C@H](Cc2ccccc2)NC(=O)[C@@H](N)CSSC[C@@H](C(=O)O)NC(=O)CNC(=O)[C@H](CC(C)C)NC(=O)CNC(=O)[C@H](CO)NC(=O)[C@H](CCSC)NC(=O)[C@H]([C@@H](C)O)NC(=O)CNC1=O [SEQ ID NO: 10] (H-CFGLKLDRIGTMSGLGC-OH; disulfide 1-17; N-terminus and C-terminus assumed)	–	–	There was no irritation upon nasal application.
CC[C@H](C)[C@@H]1NC(=O)CNC(=O)[C@H](CO)NC(=O)[C@H](CCSC)NC(=O)[C@H](CO)NC(=O)CNC(=O)[C@H]([C@@H](C)CC)NC(=O)[C@H](CCCNC(=N)N)NC(=O)[C@H](CC(=O)O)NC(=O)[C@H](CC(C)C)NC(=O)[C@H](CCCCN)NC(=O)[C@H](CC(C)C)NC(=O)CNC(=O)[C@H](Cc2ccccc2)NC(=O)[C@@H](N)CSSC[C@@H](C(=O)O)NC(=O)CNC1=O [SEQ ID NO: 19] (H-CFGLKLDRIGSMSGIGC-OH; disulfide 1-17; N-terminus and C-terminus assumed)	–	–	There was no irritation upon nasal application.
CC[C@H](C)[C@@H]1NC(=O)[C@H](CCCNC(=N)N)NC(=O)[C@H](CC(=O)O)NC(=O)[C@H](CCSC)NC(=O)[C@H](CCCCN)NC(=O)[C@H](CC(C)C)NC(=O)[C@H](C)NC(=O)[C@H](Cc2ccccc2)NC(=O)[C@@H](N)CSSC[C@@H](C(=O)O)NC(=O)CNC(=O)[C@H](CC(C)C)NC(=O)CNC(=O)[C@H](CO)NC(=O)[C@H](CCSC)NC(=O)[C@H](CO)NC(=O)CNC1=O [SEQ ID NO. 32] (H-CFALKMDRIGSMSGLGC-OH; disulfide 1-17; N-terminus and C-terminus assumed)	–	–	There was no irritation upon nasal application.
CC[C@H](C)[C@@H]1NC(=O)CNC(=O)[C@H](CO)NC(=O)[C@H](CCSC)NC(=O)[C@H]([C@@H](C)O)NC(=O)CNC(=O)[C@H]([C@@H](C)CC)NC(=O)[C@H](CCCNC(=N)N)NC(=O)[C@H](CC(=O)O)NC(=O)[C@H](CC(C)C)NC(=O)[C@H](CCCCN)NC(=O)[C@H](CC(C)C)NC(=O)CNC(=O)[C@H](Cc2ccccc2)NC(=O)[C@@H](N)CSSC[C@@H](C(=O)O)NC(=O)CNC1=O [SEQ ID NO: 40] (H-CFGLKLDRIGTMSGIGC-OH; disulfide 1-17; N-terminus and C-terminus assumed)	–	–	There was no irritation upon nasal application.
CC[C@H](C)[C@@H]1NC(=O)[C@H](CCCNC(=N)N)NC(=O)[C@H](CC(=O)O)NC(=O)[C@H](CC(C)C)NC(=O)[C@H](CCCCN)NC(=O)[C@H](CC(C)C)NC(=O)CNC(=O)[C@H](Cc2ccccc2)NC(=O)[C@@H](N)CSSC[C@@H](C(=O)O)NC(=O)CNC(=O)[C@H](Cc2ccccc2)NC(=O)CNC(=O)[C@H](CO)NC(=O)[C@H](CCSC)NC(=O)[C@H](CO)NC(=O)CNC1=O [SEQ ID NO: 21] (H-CFGLKLDRIGSMSGFGC-OH; disulfide 1-17; N-terminus and C-terminus assumed)	–	–	upon blowing. There was no irritation upon nasal
CC[C@H](C)[C@@H]1NC(=O)[C@H](CCCNC(=N)N)NC(=O)[C@H](CC(=O)O)NC(=O)[C@H](CC(C)C)NC(=O)[C@H](CCCCN)NC(=O)[C@H](CC(C)C)NC(=O)CNC(=O)[C@H](Cc2ccccc2)NC(=O)[C@@H](N)CSSC[C@@H](C(=O)O)NC(=O)CNC(=O)[C@H](CC(C)C)NC(=O)CNC(=O)[C@H](CO)NC(=O)[C@H](CCSC)NC(=O)[C@H](C)NC(=O)CNC1=O [SEQ ID NO: 11] (H-CFGLKLDRIGAMSGLGC-OH; disulfide 1-17; N-terminus and C-terminus assumed)	–	–	There was no irritation upon nasal application.
CC[C@H](C)[C@@H]1NC(=O)[C@H](CCCNC(=N)N)NC(=O)[C@H](CC(=O)O)NC(=O)[C@H](CC(C)C)NC(=O)[C@H](CCCCN)NC(=O)[C@H](CC(C)C)NC(=O)CNC(=O)[C@H](Cc2ccccc2)NC(=O)[C@@H](N)CSSC[C@@H](C(=O)O)NC(=O)CNC(=O)[C@H](C(C)C)NC(=O)CNC(=O)[C@H](CO)NC(=O)[C@H](CCSC)NC(=O)[C@H](CO)NC(=O)CNC1=O [SEQ ID NO: 18] (H-CFGLKLDRIGSMSGVGC-OH; disulfide 1-17; N-terminus and C-terminus assumed)	–	–	There was no irritation upon nasal application.
